Broadly, the Hill coefficient is the slope factor of the fitted curve. One may read the kcat as the maximal rate divided by the concentration of active sites. For orientation: Km means the substrate concentration at which the rate is half of its maximum. A word on the Vmax: it is the rate approached at saturating substrate. By IC50 is commonly meant the concentration needed to halve the response being measured. A lower IC50 goes with greater potency in that assay.

The results in this text go back to paper PMC4822204 (Biomolecular Detection and Quantification, 2015).

Format in all cases: biochemical
Experiment [1] deals with T1, alkaline phosphatase from bovine intestine (Bos taurus, UniProt P19111). The experiment is described as follows: AP colorimetric assay. The note with it: detergent at two concentrations above its critical micelle concentration.
Target sequence in this assay (P19111 20-533): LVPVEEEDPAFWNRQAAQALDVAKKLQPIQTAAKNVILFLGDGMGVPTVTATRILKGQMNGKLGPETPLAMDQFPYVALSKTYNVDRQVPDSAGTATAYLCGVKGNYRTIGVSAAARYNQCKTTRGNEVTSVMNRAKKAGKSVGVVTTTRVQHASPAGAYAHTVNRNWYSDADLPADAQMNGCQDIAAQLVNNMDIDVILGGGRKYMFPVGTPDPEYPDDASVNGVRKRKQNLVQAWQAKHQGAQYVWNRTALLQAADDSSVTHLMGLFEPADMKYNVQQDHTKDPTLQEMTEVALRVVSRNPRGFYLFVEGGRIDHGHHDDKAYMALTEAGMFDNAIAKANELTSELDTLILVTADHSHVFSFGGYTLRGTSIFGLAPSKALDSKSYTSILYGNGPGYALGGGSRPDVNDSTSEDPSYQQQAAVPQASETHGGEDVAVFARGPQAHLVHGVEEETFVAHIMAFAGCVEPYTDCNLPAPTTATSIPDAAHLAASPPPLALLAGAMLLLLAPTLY
The target of experiment [2] is T1, alkaline phosphatase from bovine intestine. In words: AP fluorometric assay. The note with it: for Hill coefficient / kcat / Km / Vmax: hydrolysis of DiFMUP by AP; for Km / Vmax / IC50 / apparent AP Vmax: ± 95% confidence interval; for IC50: 60 min; for apparent AP Vmax: substrate DiFMUP.
Target sequence in this assay (P19111 20-506 limits assumed): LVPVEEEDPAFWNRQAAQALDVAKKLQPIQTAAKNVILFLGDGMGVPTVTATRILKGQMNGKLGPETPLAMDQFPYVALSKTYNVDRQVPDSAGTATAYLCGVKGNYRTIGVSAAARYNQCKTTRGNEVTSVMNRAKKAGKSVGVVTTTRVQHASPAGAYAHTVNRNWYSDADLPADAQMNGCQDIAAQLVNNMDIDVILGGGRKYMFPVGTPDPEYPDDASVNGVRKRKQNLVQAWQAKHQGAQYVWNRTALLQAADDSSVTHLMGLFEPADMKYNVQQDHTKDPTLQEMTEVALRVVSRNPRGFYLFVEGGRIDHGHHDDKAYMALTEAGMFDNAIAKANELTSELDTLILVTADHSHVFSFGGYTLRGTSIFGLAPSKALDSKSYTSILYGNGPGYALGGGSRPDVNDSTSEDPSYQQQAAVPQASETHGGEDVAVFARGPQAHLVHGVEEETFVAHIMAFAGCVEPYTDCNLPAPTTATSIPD
Experiment [3] concerns alkaline phosphatase from bovine intestine. The experiment is described as follows: Reversibility test by rapid dilution of the enzyme-inhibitor complex.

Take `C[C@H](CCC(=O)NCCC[N+](C)(C)CCCS(=O)(=O)[O-])[C@H]1CC[C@H]2[C@@H]3[C@H](O)C[C@@H]4C[C@H](O)CC[C@]4(C)[C@H]3C[C@H](O)[C@]12C` [CHAPS]: the “increase in AP activity” value in experiment [1] was “up to 40%”.
In the case of `C[S+](C)[O-]` [DMSO], in experiment [2] (DMSO concentrations up to 1.5%), the “decrease in reaction velocity” value is reported as “less than 10%”.
Turning to `Cc1cc(=O)oc2c(F)c(OP(=O)(O)O)c(F)cc12` [DiFMUP, 6,8-difluoro-4-methylumbelliferyl phosphate], the Hill coefficient in experiment [2] (pH 6.5, 37 °C) worked out at 1; in experiment [2] (pH 7.0, 37 °C), 1; in experiment [2] (pH 7.5, 37 °C), 1; in experiment [2] (pH 8.0, 37 °C) it was 1. Also, the kcat in experiment [2] (pH 6.5, 37 °C) stood at 37 s⁻¹; in experiment [2] (pH 7.0, 37 °C), 82 s⁻¹; in experiment [2] (pH 7.5, 37 °C) it was 147 s⁻¹; in experiment [2] (pH 8.0, 37 °C), 211 s⁻¹. Further, the Km in experiment [2] (pH 6.5, 37 °C) was 200 ± 40 nM; in experiment [2] (pH 7.0, 37 °C), 500 ± 40 nM; in experiment [2] (pH 7.5, 37 °C), 1400 ± 200 nM; in experiment [2] (pH 8.0, 37 °C), 2800 ± 100 nM. For the same molecule, the Vmax was 32 ± 2 µmol/min/mg in experiment [2] (pH 6.5, 37 °C); 71 ± 3 µmol/min/mg in experiment [2] (pH 7.0, 37 °C); 126 ± 3 µmol/min/mg in experiment [2] (pH 7.5, 37 °C); 181 ± 1 µmol/min/mg in experiment [2] (pH 8.0, 37 °C).
Consider `[Na+].[Na+].[Na+].[O]=[V]([O-])([O-])[O-]` [Na3VO4, sodium orthovanadate], for which the IC50 in experiment [2] (0.025 μM DiFMUP, pH 6.5, 37 °C) turned out to be 1000 ± 400 nM; in experiment [2] (0.050 μM DiFMUP, pH 6.5, 37 °C), 1500 ± 400 nM; in experiment [2] (0.100 μM DiFMUP, pH 6.5, 37 °C), 1600 ± 300 nM; in experiment [2] (0.200 μM DiFMUP, pH 6.5, 37 °C), 2300 ± 400 nM; in experiment [2] (0.400 μM DiFMUP, pH 6.5, 37 °C), 4000 ± 400 nM; in experiment [2] (0.800 μM DiFMUP, pH 6.5, 37 °C), 6100 ± 900 nM. In experiment [2] (1.600 μM DiFMUP, pH 6.5, 37 °C), this molecule showed an IC50 of 11000 ± 3000 nM. The mode of inhibition result in experiment [2] (IC50 rises with DiFMUP concentration, apparent KM but not Vmax rises) is recorded as “competitive”. For the same molecule, the “apparent AP Vmax” value in experiment [2] (Na3VO4 0.084 μM) was found to be 567 ± 18 RFU min^−1; in experiment [2] (Na3VO4 0.250 μM), 561 ± 35 RFU min^−1; in experiment [2] (Na3VO4 0.760 μM), 566 ± 24 RFU min^−1; in experiment [2] (Na3VO4 2.28 μM), 546 ± 32 RFU min^−1; in experiment [2] (Na3VO4 6.68 μM) it was 513 ± 53 RFU min^−1. The reversibility of inhibition result in experiment [3] was “rapidly reversible”.
Take Triton X-100: the “increase in AP activity” value in experiment [1] is listed as “up to 40%”.
On the same count and under the same terms, then Tween 20, with “up to 40%”.
